Assay results as given in the supplement of paper PMC10307832.

Assays:
Assay in all cases: relative viability (nuclei count vs DMSO), 5 days (fraction); higher = more cells survive
Linsitinib + Bortezomib = compound: C[C@]1(O)C[C@@H](c2nc(-c3ccc4ccc(-c5ccccc5)nc4c3)c3c(N)nccn32)C1 [Linsitinib] + CC(C)C[C@H](NC(=O)[C@H](Cc1ccccc1)NC(=O)c1cnccn1)B(O)O [Bortezomib] (partner 0.002 µM)
Procedure, shortened: (§1)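 For relative viability, nuclei counts in treated wells were divided by those in vehicle wells. Lung cancer cell lines had been pin-tool dosed in 1536-well plates the day after seeding and cultured for 5 days, then fixed and stained in one step (final 0.05% Triton X-100, 1% formaldehyde, 1 ug/ml Hoechst) and imaged at 4×. Doses were one drug alone or a fixed anchor-drug dose plus five library-drug doses (not always all listed) in √10 steps, and values are duplicate-plate medians.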

Linsitinib + Luminespib = compound: C[C@]1(O)C[C@@H](c2nc(-c3ccc4ccc(-c5ccccc5)nc4c3)c3c(N)nccn32)C1 [Linsitinib] + CCNC(=O)c1noc(-c2cc(C(C)C)c(O)cc2O)c1-c1ccc(CN2CCOCC2)cc1 [Luminespib] (partner 0.01 µM)
Procedure, shortened: as §1

Linsitinib + Alpelisib = compound: C[C@]1(O)C[C@@H](c2nc(-c3ccc4ccc(-c5ccccc5)nc4c3)c3c(N)nccn32)C1 [Linsitinib] + Cc1nc(NC(=O)N2CCC[C@H]2C(N)=O)sc1-c1ccnc(C(C)(C)C(F)(F)F)c1 [Alpelisib] (partner 2 µM)
Procedure, shortened: as §1

Ispinesib + Pemetrexed = compound: Cc1ccc(C(=O)N(CCCN)[C@@H](c2nc3cc(Cl)ccc3c(=O)n2Cc2ccccc2)C(C)C)cc1 [Ispinesib] + Nc1nc2[nH]cc(CCc3ccc(C(=O)N[C@@H](CCC(=O)O)C(=O)O)cc3)c2c(=O)[nH]1 [Pemetrexed] (partner 0.2 µM)
Procedure, shortened: as §1

| Cell Line | relative viability (Linsitinib + Bortezomib; first compound 0.01 µM) | relative viability (Linsitinib + Bortezomib; first compound 0.03162 µM) | relative viability (Linsitinib + Bortezomib; first compound 0.1 µM) | relative viability (Linsitinib + Bortezomib; first compound 0.3162 µM) | relative viability (Linsitinib + Bortezomib; first compound 1 µM) | relative viability (Linsitinib + Luminespib; first compound 0.01 µM) | relative viability (Linsitinib + Luminespib; first compound 0.03162 µM) | relative viability (Linsitinib + Luminespib; first compound 0.1 µM) | relative viability (Linsitinib + Luminespib; first compound 0.3162 µM) | relative viability (Linsitinib + Luminespib; first compound 1 µM) | relative viability (Linsitinib + Alpelisib; first compound 0.01 µM) | relative viability (Linsitinib + Alpelisib; first compound 0.03162 µM) | relative viability (Linsitinib + Alpelisib; first compound 0.1 µM) | relative viability (Linsitinib + Alpelisib; first compound 0.3162 µM) | relative viability (Linsitinib + Alpelisib; first compound 1 µM) | relative viability (Ispinesib + Pemetrexed; first compound 0.001 µM) | relative viability (Ispinesib + Pemetrexed; first compound 0.003162 µM) | relative viability (Ispinesib + Pemetrexed; first compound 0.01 µM) | relative viability (Ispinesib + Pemetrexed; first compound 0.03162 µM) | relative viability (Ispinesib + Pemetrexed; first compound 0.1 µM) |
| --- | --- | --- | --- | --- | --- | --- | --- | --- | --- | --- | --- | --- | --- | --- | --- | --- | --- | --- | --- | --- |
| NCI-H1792 | 0.971 | 0.953 | 0.928 | 0.775 | 0.704 | 0.427 | 0.52 | 0.371 | 0.297 | 0.328 | 0.803 | 0.751 | 0.615 | 0.606 | 0.538 | 1.05 | 1.15 | 0.903 | 0.448 | 0.135 |
| NCI-H1651 | 0.954 | 0.976 | 0.792 | 0.82 | 0.916 | 0.754 | 0.903 | 0.801 | 0.621 | 0.682 | 1.03 | 0.989 | 0.822 | 0.738 | 0.957 | 0.616 | 0.783 | 0.57 | 0.63 | 0.418 |
| A549 |  |  |  |  |  |  |  |  |  |  | 0.744 | 0.668 | 0.634 | 0.423 | 0.421 |  |  |  |  |  |
| HCC-366 | 1.06 | 1.02 | 1.1 | 0.959 | 0.906 |  |  |  |  |  | 0.416 | 0.239 | 0.446 | 0.242 | 0.201 | 0.18 | 0.189 | 0.176 | 0.153 | 0.0222 |
| EKVX | 1.12 | 1.02 | 1.07 | 0.9 | 0.852 | 0.844 | 0.842 | 0.87 | 0.688 | 0.684 | 0.842 | 0.848 | 0.856 | 0.901 | 0.756 | 0.41 |  | 0.416 | 0.337 | 0.325 |
| NCI-H1993 | 1.26 | 1.29 | 1.32 | 0.797 | 0.695 | 0.751 | 0.852 | 0.835 | 0.794 | 0.498 | 0.723 | 0.568 | 0.701 | 0.75 | 0.64 | 0.652 | 0.677 | 0.637 | 0.587 | 0.404 |
| NCI-H2342 |  |  |  |  |  | 0.662 | 0.754 | 0.702 | 0.714 | 0.536 |  |  |  |  |  | 0.772 | 0.813 | 0.924 | 0.751 | 0.468 |
| NCI-H1703 | 0.416 |  | 0.317 | 0.288 | 0.314 |  |  |  |  |  | 0.363 |  | 0.346 | 0.227 | 0.219 |  |  |  |  |  |
| NCI-H727 | 0.86 | 0.856 | 0.948 | 0.392 | 0.501 | 0.323 | 0.207 | 0.346 | 0.268 | 0.288 | 0.489 | 0.394 | 0.564 | 0.378 | 0.278 |  |  |  |  |  |
| IA-LM | 0.748 | 0.824 | 0.789 | 0.648 | 0.678 |  |  |  |  |  | 0.829 | 0.809 | 0.743 | 0.387 | 0.51 |  |  |  |  |  |
| NCI-H522 |  |  |  |  |  | 1.55 | 1.18 | 1.18 | 0.961 | 1.2 |  |  |  |  |  | 0.961 | 0.975 | 0.859 | 0.586 | 0.364 |
| SW 900 |  |  |  |  |  | 0.169 | 0.204 | 0.189 | 0.162 | 0.165 |  |  |  |  |  | 0.482 | 0.516 | 0.525 | 0.469 | 0.189 |
| NCI-H358 |  |  |  |  |  | 0.365 | 0.367 | 0.299 | 0.333 | 0.194 | 0.794 | 0.804 | 0.734 | 0.471 | 0.479 | 0.176 | 0.146 | 0.17 | 0.169 | 0.135 |
| LK-2 |  |  |  |  |  | 0.173 | 0.152 | 0.187 | 0.192 | 0.166 | 1.04 | 1.12 | 1.33 | 0.804 | 1.11 | 0.231 | 0.29 | 0.294 | 0.269 | 0.124 |
| NCI-H1648 |  |  |  |  |  |  |  |  |  |  |  |  |  |  |  | 0.92 | 0.723 | 0.802 | 0.751 | 0.305 |
| ChaGo-K-1 | 1.05 | 0.98 | 0.922 | 0.443 | 1 | 0.644 | 0.535 | 0.544 | 0.699 | 0.728 |  |  |  |  |  | 0.248 | 0.274 | 0.26 | 0.256 | 0.154 |
| NCI-H2170 |  |  |  |  |  | 0.704 | 0.761 | 0.515 | 0.557 | 0.687 | 0.865 | 0.777 | 0.698 | 0.745 | 0.68 | 0.357 | 0.266 | 0.256 | 0.205 | 0.158 |
| Calu-6 | 0.996 | 1.04 | 1.05 | 0.867 | 0.905 |  |  |  |  |  | 1.01 | 0.919 | 1.04 | 1.03 | 0.794 |  |  |  |  |  |
| NCI-H1395 |  |  |  |  |  | 0.672 | 0.585 | 0.616 | 0.63 | 0.732 | 0.945 | 0.915 | 1.24 | 0.962 | 0.957 | 0.986 | 1.04 | 0.725 | 0.432 | 0.377 |
| NCI-H1793 |  |  |  |  |  | 0.166 | 0.205 | 0.164 | 0.149 | 0.178 | 0.71 | 0.734 | 0.738 | 0.615 | 0.738 | 1.09 | 0.943 | 1.12 | 0.775 | 0.232 |
| SK-MES-1 |  |  |  |  |  | 0.845 | 0.854 | 0.953 | 0.652 | 0.762 | 0.9 | 1.02 | 0.907 | 0.814 | 0.854 | 1.02 | 1.04 | 0.805 | 0.206 | 0.234 |
| NCI-H1299 | 1.06 | 0.972 | 1.05 | 0.944 | 0.986 |  |  |  |  |  | 1.05 | 1.07 | 1.12 | 1.01 | 1.04 |  |  |  |  |  |
| EBC-1 | 0.59 | 0.536 | 0.579 | 0.519 | 0.442 |  |  |  |  |  | 0.758 | 0.841 | 1.05 | 0.601 | 0.814 |  |  |  |  |  |
| NCI-H1944 |  |  |  |  |  | 0.755 | 0.793 | 0.727 | 0.637 | 0.532 | 0.753 | 0.962 | 0.865 | 0.918 | 0.801 | 0.682 | 0.61 | 0.588 | 0.389 | 0.218 |
